Laboratory results: PubChem BioAssay AID248 (DTP/NCI, 2004)
“And” between values parts separate entries of the source, which are not always exact repeats. Equal values may be shown once. Inconclusive results and toxic doses are left out.

Test system: L1210 leukemia ip in BDF1 mice, survival T/C
Assay: NCI In Vivo Anticancer Drug Screen. Data for tumor model L1210 Leukemia (intraperitoneal) in B6D2F1 (BDF1) mice
Details: endpoint: mean survival time, higher = longer survival
Summary of the method: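 Transplantable tumor model; survival measured in treated vs vehicle control mice. Value = treated/control.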

[1] = dose: 25.0 mg/kg/injection, schedule: Q01DX009 (ip), vehicle: Klucel (hydroxypropylcellulose) (HPC)
[2] = dose: 50.0 mg/kg/injection, schedule: Q01DX009 (ip), vehicle: Klucel (hydroxypropylcellulose) (HPC)
[3] = dose: 100.0 mg/kg/injection, schedule: Q04DX003 (ip), vehicle: Klucel (hydroxypropylcellulose) (HPC)
[4] = dose: 400.0 mg/kg/injection, schedule: Q01DX001 (ip), vehicle: carboxymethylcellulose (CMC)
[5] = dose: 75.0 mg/kg/injection, schedule: Q01DX001 (ip), vehicle: saline
[6] = dose: 150.0 mg/kg/injection, schedule: Q01DX001 (ip), vehicle: saline
[7] = dose: 100.0 mg/kg/injection, schedule: Q04DX003 (ip), vehicle: saline with Tween-80
[8] = dose: 200.0 mg/kg/injection, schedule: Q04DX003 (ip), vehicle: saline with Tween-80
[9] = dose: 400.0 mg/kg/injection, schedule: Q04DX003 (ip), vehicle: saline with Tween-80

O=C(CCCN1CCC(O)(c2cccc(C(F)(F)F)c2)CC1)c1ccc(F)cc1
T/C (dose: 0.04 mg/kg/injection, schedule: Q03HX024 (ip), vehicle: Klucel (hydroxypropylcellulose) (HPC)): 102 % of control | T/C (dose: 0.09 mg/kg/injection, schedule: Q03HX024 (ip), vehicle: Klucel (hydroxypropylcellulose) (HPC)): 107 % of control | T/C (dose: 0.19 mg/kg/injection, schedule: Q03HX024 (ip), vehicle: Klucel (hydroxypropylcellulose) (HPC)): 105 % of control | T/C (dose: 0.39 mg/kg/injection, schedule: Q03HX024 (ip), vehicle: Klucel (hydroxypropylcellulose) (HPC)): 107 % of control | T/C (dose: 0.78 mg/kg/injection, schedule: Q03HX004 (ip), vehicle: Klucel (hydroxypropylcellulose) (HPC)): 96 % of control | T/C (dose: 0.78 mg/kg/injection, schedule: Q03HX024 (ip), vehicle: Klucel (hydroxypropylcellulose) (HPC)): 107 % of control | T/C (dose: 1.56 mg/kg/injection, schedule: Q01DX009 (ip), vehicle: Klucel (hydroxypropylcellulose) (HPC)): 111 % of control | T/C (dose: 1.56 mg/kg/injection, schedule: Q03HX004 (ip), vehicle: Klucel (hydroxypropylcellulose) (HPC)): 91 % of control | T/C (dose: 1.56 mg/kg/injection, schedule: Q03HX024 (ip), vehicle: Klucel (hydroxypropylcellulose) (HPC)): 97 % of control | T/C (dose: 2.0 mg/kg/injection, schedule: Q01DX009 (ip), vehicle: Klucel (hydroxypropylcellulose) (HPC)): 100 % of control | T/C (dose: 3.12 mg/kg/injection, schedule: Q01DX009 (ip), vehicle: Klucel (hydroxypropylcellulose) (HPC)): 107 % of control and 122 % of control | T/C (dose: 3.12 mg/kg/injection, schedule: Q03HX024 (ip), vehicle: Klucel (hydroxypropylcellulose) (HPC)): 100 % of control and 86 % of control | T/C (dose: 3.12 mg/kg/injection, schedule: Q04DX003 (ip), vehicle: Klucel (hydroxypropylcellulose) (HPC)): 91 % of control and 101 % of control | T/C (dose: 4.0 mg/kg/injection, schedule: Q01DX009 (ip), vehicle: Klucel (hydroxypropylcellulose) (HPC)): 92 % of control | T/C (dose: 6.25 mg/kg/injection, schedule: Q01DX001 (ip), vehicle: Klucel (hydroxypropylcellulose) (HPC)): 106 % of control | T/C (dose: 6.25 mg/kg/injection, schedule: Q01DX009 (ip), vehicle: Klucel (hydroxypropylcellulose) (HPC)): 110 % of control | T/C (dose: 6.25 mg/kg/injection, schedule: Q04DX003 (ip), vehicle: Klucel (hydroxypropylcellulose) (HPC)): 100 % of control and 102 % of control and 108 % of control | T/C (dose: 12.5 mg/kg/injection, schedule: Q01DX001 (ip), vehicle: Klucel (hydroxypropylcellulose) (HPC)): 106 % of control | T/C (dose: 12.5 mg/kg/injection, schedule: Q01DX009 (ip), vehicle: Klucel (hydroxypropylcellulose) (HPC)): 121 % of control | T/C (dose: 12.5 mg/kg/injection, schedule: Q04DX003 (ip), vehicle: Klucel (hydroxypropylcellulose) (HPC)): 94 % of control and 103 % of control | T/C (dose: 18.75 mg/kg/injection, schedule: Q01DX001 (ip), vehicle: Klucel (hydroxypropylcellulose) (HPC)): 91 % of control | T/C (dose: 25.0 mg/kg/injection, schedule: Q01DX001 (ip), vehicle: Klucel (hydroxypropylcellulose) (HPC)): 104 % of control and 119 % of control and 123 % of control | T/C [1]: 91 % of control | T/C (dose: 25.0 mg/kg/injection, schedule: Q04DX003 (ip), vehicle: Klucel (hydroxypropylcellulose) (HPC)): 107 % of control and 117 % of control | T/C (dose: 37.5 mg/kg/injection, schedule: Q01DX001 (ip), vehicle: Klucel (hydroxypropylcellulose) (HPC)): 103 % of control | T/C (dose: 50.0 mg/kg/injection, schedule: Q01DX001 (ip), vehicle: Klucel (hydroxypropylcellulose) (HPC)): 123 % of control | T/C [2]: 92 % of control | T/C (dose: 50.0 mg/kg/injection, schedule: Q04DX003 (ip), vehicle: Klucel (hydroxypropylcellulose) (HPC)): 97 % of control and 116 % of control | T/C (dose: 75.0 mg/kg/injection, schedule: Q01DX001 (ip), vehicle: Klucel (hydroxypropylcellulose) (HPC)): 91 % of control | T/C (dose: 100.0 mg/kg/injection, schedule: Q01DX001 (ip), vehicle: Klucel (hydroxypropylcellulose) (HPC)): 110 % of control and 115 % of control and 121 % of control | T/C [3]: 116 % of control | T/C (dose: 150.0 mg/kg/injection, schedule: Q01DX001 (ip), vehicle: Klucel (hydroxypropylcellulose) (HPC)): 100 % of control

O=C(O)c1ccc(/C=N/NC(=O)C(O)(c2ccccc2)c2ccccc2)cc1
T/C (dose: 100.0 mg/kg/injection, schedule: Q01DX001 (ip), vehicle: carboxymethylcellulose (CMC)): 108 % of control | T/C (dose: 200.0 mg/kg/injection, schedule: Q01DX001 (ip), vehicle: carboxymethylcellulose (CMC)): 108 % of control | T/C [4]: 108 % of control

C[n+]1cccc(C(=O)NN=C2CCCCC2)c1
T/C (dose: 100.0 mg/kg/injection, schedule: Q01DX001 (ip), vehicle: saline with Tween-80): 93 % of control | T/C (dose: 200.0 mg/kg/injection, schedule: Q01DX001 (ip), vehicle: saline with Tween-80): 102 % of control | T/C (dose: 400.0 mg/kg/injection, schedule: Q01DX001 (ip), vehicle: saline with Tween-80): 94 % of control

CC(=O)C1CCC2C3=CC=C4CC(O)CCC4(C)C3=CCC12C (centres undefined)
T/C [3]: 96 % of control | T/C (dose: 200.0 mg/kg/injection, schedule: Q04DX003 (ip), vehicle: Klucel (hydroxypropylcellulose) (HPC)): 93 % of control | T/C (dose: 400.0 mg/kg/injection, schedule: Q04DX003 (ip), vehicle: Klucel (hydroxypropylcellulose) (HPC)): 93 % of control

CCOC(=O)CNC(=O)C(CSC(c1ccccc1)(c1ccccc1)c1ccccc1)NC(c1ccccc1)(c1ccccc1)c1ccccc1 (centres undefined)
T/C (dose: 50.0 mg/kg/injection, schedule: Q01DX009 (ip), vehicle: saline): 89 % of control | T/C (dose: 100.0 mg/kg/injection, schedule: Q01DX009 (ip), vehicle: saline): 103 % of control | T/C (dose: 200.0 mg/kg/injection, schedule: Q01DX009 (ip), vehicle: saline): 92 % of control | T/C (dose: 400.0 mg/kg/injection, schedule: Q01DX009 (ip), vehicle: saline): 94 % of control

C/C(N)=C\C#N
T/C (dose: 50.0 mg/kg/injection, schedule: Q01DX001 (ip), vehicle: saline): 91 % of control

COC1C(O)C(CO)OC1n1cnc2c(=S)nc(N)[nH]c21 (centres undefined)
T/C (dose: 266.0 mg/kg/injection, schedule: Q01DX001 (ip), vehicle: carboxymethylcellulose (CMC)): 153 % of control | T/C [4]: 157 % of control | T/C (dose: 600.0 mg/kg/injection, schedule: Q01DX001 (ip), vehicle: carboxymethylcellulose (CMC)): 153 % of control

O=S(=O)(O)SCCCNCCCNCCCSS(=O)(=O)O
T/C (dose: 9.37 mg/kg/injection, schedule: Q01DX009 (ip), vehicle: saline): 88 % of control | T/C (dose: 18.75 mg/kg/injection, schedule: Q01DX009 (ip), vehicle: saline): 87 % of control | T/C (dose: 37.5 mg/kg/injection, schedule: Q01DX009 (ip), vehicle: saline): 93 % of control | T/C (dose: 37.5 mg/kg/injection, schedule: Q04DX003 (ip), vehicle: saline): 98 % of control | T/C [5]: 102 % of control | T/C (dose: 75.0 mg/kg/injection, schedule: Q04DX003 (ip), vehicle: saline): 93 % of control | T/C [6]: 96 % of control

COc1cc(CCN)cc(OC)c1OC
T/C [5]: 104 % of control | T/C [6]: 103 % of control | T/C (dose: 300.0 mg/kg/injection, schedule: Q01DX001 (ip), vehicle: saline): 104 % of control

CCCCCCCCCCCCCCCCCCOB(OCCCCCCCCCCCCCCCCCC)OCCCCCCCCCCCCCCCCCC
T/C [7]: 108 % of control | T/C [8]: 108 % of control | T/C [9]: 97 % of control

CS(C)=O.CS(C)=O.[Cl][Sn]([Cl])([Cl])[Cl]
T/C [1]: 95 % of control | T/C [2]: 90 % of control | T/C (dose: 100.0 mg/kg/injection, schedule: Q01DX009 (ip), vehicle: Klucel (hydroxypropylcellulose) (HPC)): 106 % of control | T/C [3]: 95 % of control | T/C (dose: 150.0 mg/kg/injection, schedule: Q01DX009 (ip), vehicle: Klucel (hydroxypropylcellulose) (HPC)): 104 % of control

CC(C#N)Oc1cccc2ccccc12 (centres undefined)
T/C (dose: 100.0 mg/kg/injection, schedule: Q01DX009 (ip), vehicle: DMSO): 87 % of control | T/C (dose: 100.0 mg/kg/injection, schedule: Q04DX003 (ip), vehicle: DMSO): 92 % of control | T/C (dose: 200.0 mg/kg/injection, schedule: Q01DX009 (ip), vehicle: DMSO): 87 % of control | T/C (dose: 200.0 mg/kg/injection, schedule: Q04DX003 (ip), vehicle: DMSO): 87 % of control | T/C (dose: 400.0 mg/kg/injection, schedule: Q04DX003 (ip), vehicle: DMSO): 103 % of control

CCOC(=O)C1CCN(C(=O)c2ccccc2)c2scc(-c3ccccc3)c2C1=O (centres undefined)
T/C (dose: 50.0 mg/kg/injection, schedule: Q04DX003 (ip), vehicle: saline with Tween-80): 94 % of control | T/C [7]: 100 % of control | T/C [8]: 92 % of control | T/C [9]: 97 % of control

C=CCON(CC=C)CC=C
T/C (dose: 100.0 mg/kg/injection, schedule: Q04DX002 (ip), vehicle: Klucel (hydroxypropylcellulose) (HPC)): 102 % of control | T/C (dose: 200.0 mg/kg/injection, schedule: Q04DX002 (ip), vehicle: Klucel (hydroxypropylcellulose) (HPC)): 102 % of control | T/C (dose: 400.0 mg/kg/injection, schedule: Q04DX002 (ip), vehicle: Klucel (hydroxypropylcellulose) (HPC)): 94 % of control
